{"source": "patent US12269793B2", "about": "“Affinity illudofulvene conjugates” (AF Chemicals, LLC, priority 2019, dated 2025)", "key": {"[1]": {"system": "8392B Nontarget Cell Line (hematopoietic)", "details": "read-out: Mean IC50 value, 2 hr exposure, ± SD, N = 3 unless otherwise indicated"}, "[2]": {"system": "8392B Nontarget Cell Line (hematopoietic)", "details": "read-out: Mean IC50 value, 48 hr exposure, ± SD, N = 3 unless otherwise indicated"}, "[3]": {"system": "MV522 Target Cell Line (lung-derived adenocarcinoma)"}, "NCI 60 cell line panel": {"system": "NCI 60 cell line panel", "test": "NCI DTP 60 cell line screen assay", "details": "for Activity Value: NCI 60 cell line screen, negative = lyse tumor cells, zero = no growth, positive = slower growth; for GI50: read-out: Mean GI50 inhibition", "text": "An ADC is engulfed by a tumor cell, transported to the endosomes (pH<6.0) and then into the lysozomes (pH<4). […] 4). Cancer cells can become resistant to various toxins and drugs through the development of what is termed multi-drug resistance. This process is known to occur through several different mechanisms."}, "MCF7 (ER positive)": {"system": "MCF7 (ER positive)", "assay_type": "cell-based", "details": "MCF7 (ER positive) versus HT29 (ER negative), result in words", "text": "MCF7 over express estrogen alpha-receptors.\nMCF7 cells over express estrogen alpha-receptors."}}, "note": "Like-named read-outs stand apart in the source and are kept apart here. *1 amine or outer side, *2 acyl side, *3 side chain or, on linkers, in order; H or OH if unused. Where a SMILES comes first, the peptide text is derived from it. [ ]: non-standard residue; d: D form. The star is where a group is joined. X2 = CC1=C(CCCN*)C2=C(C)C3(CC3)[C@@](C)(O)C(=O)C2=C1; Dolaproine = CO[C@@H]([C@@H]1CCCN1)[C@@H](C)C(=O)O; Dil = CC[C@H](C)[C@H](NC)[C@@H](CC(=O)O)OC; X1 = C[C@@H](N*)[C@@H](O)c1ccccc1; NMeV = CN[C@H](C(=O)O)C(C)C; Morpholide = C1CN(*)CCO1; CO = O=C([*:1])[*:2]"}
{"molecule": "CC1=C(CSc2nc3ccccc3s2)C2=C(C)C3(CC3)[C@@](C)(O)C(=O)C2=C1", "note": "[Analog 147]", "values": [{"measurement": "IC50", "setting": "[1]", "value": "> 76", "unit": "µM"}]}
{"molecule": "CC1=C(CSc2nnnn2-c2ccc(O)cc2)C2=C(C)C3(CC3)[C@@](C)(O)C(=O)C2=C1", "note": "[Analog 154]", "values": [{"measurement": "IC50", "setting": "[1]", "value": "> 70", "unit": "µM"}]}
{"molecule": "CC1=C2C(=CC(C)(CO[Si](C)(C)C(C)(C)C)C2OC(=O)c2ccc(S(=O)(=O)F)cc2)C(=O)C(C)(O)C12CC2", "note": "(stereo not drawn) [Analog 219]", "values": [{"measurement": "IC50", "setting": "[2]", "value": "> 52", "unit": "µM"}, {"measurement": "IC50", "setting": "[1]", "value": "> 52", "unit": "µM"}]}
{"molecule": "CC1=C(CCCNC(=O)[C@H](CC(C)C)NC(=O)[C@H](CCC(N)=O)NC(=O)[C@H](CC(C)C)NC(=O)[C@H](CCCCN)NC(=O)[C@H](CO)NC(=O)[C@H](CO)NC(=O)[C@H](Cc2c[nH]cn2)NC(=O)N2CCOCC2)C2=C(C)C3(CC3)[C@@](C)(O)C(=O)C2=C1", "note": "[Analog 221] ({Morpholide-CO}-HSSKLQL-X2)", "values": [{"measurement": "IC50", "setting": "[2]", "value": "> 21", "unit": "µM"}, {"measurement": "IC50", "setting": "[3]; read-out: Mean IC50 value, MV522 Target Cell Line, 2 hr exposure, ± SD, N = 3 unless otherwise indicated", "value": "> 21", "unit": "µM"}, {"measurement": "IC50", "setting": "[1]", "value": "> 21", "unit": "µM"}]}
{"molecule": "CC1=CC2=C(C)C3(CC3)C(C)(O)C(=NO)C2=C1", "note": "(stereo not drawn) [Analog 224]", "values": [{"measurement": "IC50", "setting": "[2]", "value": "> 130", "unit": "µM"}, {"measurement": "toxicity as monotherapeutic agent", "setting": "[3]; MV522 target and 8392B nontarget cell line, result in words", "value": "minimal toxicity"}, {"measurement": "IC50", "setting": "[1]", "value": "> 200", "unit": "µM"}]}
{"molecule": "CCCCCCCC/C=C/CCCCCCCC(=O)OCC1=C(C)C=C2C(=O)[C@](C)(O)C3(CC3)C(C)=C21", "note": "[Analog 226]", "values": [{"measurement": "IC50", "setting": "[2]", "value": "> 59", "unit": "µM"}, {"measurement": "IC50", "setting": "[1]", "value": "> 59", "unit": "µM"}]}
{"molecule": "CCCCCCCC/C=C/CCCCCCCC(=O)OCCCC1=C(C)C=C2C(=O)[C@](C)(O)C3(CC3)C(C)=C21", "note": "[Analog 227]", "values": [{"measurement": "IC50", "setting": "[1]", "value": "> 57", "unit": "µM"}]}
{"molecule": "CC1=C2C(O)C(C)(C)C3CC23C(=O)C(C)(O)C12CC2", "note": "(stereo not drawn) [Analog 252]", "values": [{"measurement": "IC50", "setting": "[2]", "value": "> 380", "unit": "µM"}, {"measurement": "IC50", "setting": "[1]", "value": "> 380", "unit": "µM"}]}
{"molecule": "CC(=O)OC[C@]1(C)C=C2C(=O)[C@](C)(O)C3(CC3)C(C)=C2[C@H]1OC(=O)N(C)CCN(C)C(=O)OC(C)(C)C", "note": "[Analog 334]", "values": [{"measurement": "Activity Value", "setting": "NCI 60 cell line panel", "value": "−11"}, {"measurement": "MDR Activity", "setting": "NCI 60 cell line panel", "value": "Yes"}]}
{"molecule": "CC(=O)O[C@@H]1C2=C(C)C3(CC3)[C@@](C)(O)C(=O)C2=C[C@@]1(C)CO", "note": "[Analog 371]", "values": [{"measurement": "Activity Value", "setting": "NCI 60 cell line panel", "value": "−18"}, {"measurement": "MDR Activity", "setting": "NCI 60 cell line panel", "value": "Yes"}]}
{"molecule": "CC1=C2C(=C[C@@](C)(C=O)[C@@H]2O)C(=O)[C@](C)(O)C12CC2", "note": "[Analog 383]", "values": [{"measurement": "Activity Value", "setting": "NCI 60 cell line panel", "value": "−1"}, {"measurement": "MDR Activity", "setting": "NCI 60 cell line panel", "value": "Yes"}]}
{"molecule": "CC1=C(CNO)C2=C(C)C3(CC3)[C@@](C)(O)C(=O)C2=C1", "note": "[Analog 394]", "values": [{"measurement": "Activity Value", "setting": "NCI 60 cell line panel", "value": "−2"}, {"measurement": "MDR Activity", "setting": "NCI 60 cell line panel", "value": "Yes"}]}
{"molecule": "COc1cc2cc(c1Cl)N(C)C(=O)C[C@H](OC(=O)[C@H](C)N(C)C(=O)CCS)[C@]1(C)O[C@H]1[C@H](C)[C@@H]1C[C@@](O)(NC(=O)O1)[C@H](OC)/C=C/C=C(\\C)C2", "note": "[DM1]", "values": [{"measurement": "Activity Value", "setting": "NCI 60 cell line panel", "value": "+8"}]}
{"molecule": "CC[C@H](C)[C@@H]([C@@H](CC(=O)N1CCC[C@H]1[C@H](OC)[C@@H](C)C(=O)N[C@@H](Cc1ccccc1)c1nccs1)OC)N(C)C(=O)[C@@H](NC(=O)[C@H](C(C)C)N(C)C)C(C)C", "note": "[Dolstatin-10]", "values": [{"measurement": "Mean LD50 cytotoxic", "setting": "NCI 60 cell line panel; NCI DTP 60 cell line, mean", "value": ">50,000 nM"}, {"measurement": "Mean TGI cytostatic", "setting": "NCI 60 cell line panel; NCI DTP 60 cell line, mean", "value": "2,680 nM"}, {"measurement": "GI50", "setting": "NCI 60 cell line panel; NCI DTP 60 cell line, mean", "value": 17, "unit": "nM"}]}
{"molecule": "C/C(=C\\c1csc(C)n1)[C@@H]1C[C@@H]2O[C@@H]2CCC[C@H](C)[C@H](O)[C@@H](C)C(=O)C(C)(C)[C@@H](O)CC(=O)O1", "note": "[Epothilone A]", "values": [{"measurement": "Activity Value", "setting": "NCI 60 cell line panel", "value": "+31"}]}
{"molecule": "CO[C@@H]1[C@H](O)CC[C@]2(CO2)[C@H]1[C@@]1(C)O[C@@H]1CC=C(C)C", "note": "[Fumagillol]", "values": [{"measurement": "Mean LD50 cytotoxic", "setting": "NCI 60 cell line panel; NCI DTP 60 cell line, mean", "value": ">50,000 nM"}]}
{"molecule": "CC1=C2C(=CC(C)(C)[C@@H]2O)C(=O)[C@](C)(O)C12CC2", "note": "[Illudin M, reference compound]", "values": [{"measurement": "preferential killing of ER positive cells", "setting": "MCF7 (ER positive)", "value": "killed both ER negative and ER positive cells to the same extent"}]}
{"molecule": "CC[C@H](C)[C@@H]([C@@H](CC(=O)N1CCC[C@H]1[C@H](OC)[C@@H](C)C(=O)N[C@H](C)[C@@H](O)c1ccccc1)OC)N(C)C(=O)[C@@H](NC(=O)[C@@H](NC)C(C)C)C(C)C", "note": "[MMAE, monomethyl auristatin E] (H-[NMeV]V[Dil][Dolaproine]-X1)", "values": [{"measurement": "Activity Value", "setting": "NCI 60 cell line panel", "value": "+21"}, {"measurement": "MDR Activity", "setting": "NCI 60 cell line panel", "value": "No"}, {"measurement": "MDR Activity", "setting": "NCI 60 cell line panel; listed as MMA", "value": "not MDR active"}]}
{"molecule": "COc1cc2cc(c1Cl)N(C)C(=O)C[C@H](OC(=O)[C@H](C)N(C)C(C)=O)[C@]1(C)O[C@H]1[C@H](C)[C@@H]1C[C@@](O)(NC(=O)O1)[C@H](OC)/C=C/C=C(\\C)C2", "note": "[Maytansine]", "values": [{"measurement": "GI50", "setting": "NCI 60 cell line panel; 60 cell", "value": 19, "unit": "nM"}, {"measurement": "Mean LD50 cytotoxic", "setting": "NCI 60 cell line panel; NCI DTP 60 cell line, mean", "value": "49,200 nM"}]}
{"molecule": "C=C1C[C@H]2C=Nc3cc(OCCCOc4cc5c(cc4OC)C(=O)N4CC(=C)C[C@H]4C=N5)c(OC)cc3C(=O)N2C1", "note": "[Pyrrolo-benzodiazepines]", "values": [{"measurement": "Mean LD50 cytotoxic", "setting": "NCI 60 cell line panel; NCI DTP 60 cell line, mean", "value": ">23,000 nM"}]}
